Format in all cases: cell-based
Assay [1] concerns HCT116 human colon cancer cells. In words: Cell proliferation (cell confluence), IncuCyte Live-Cell Analysis system. As to conditions: for Cell Confluence (%): when control cells reached ~90% confluence, n = 4; for IC50: Homo sapiens, at ~90% confluence of control. The text has this:
FIG. 1. Effects of HU and Mito-HUs on proliferation of HCT116 human colon cancer cells (A) Effects of HU and Mito-HUs on the proliferation of HCT116 cells were monitored in the IncuCyte Live-Cell Analysis system. The IncuCyte Analyzer provides real-time updates on cell confluence, based on segmentation of high definition-phase contrast images. Representative cell images were shown as segmentation mask illustrated in brown when control cells reached 90% confluence (vertical solid black line). (B) The IC50 values were determined at the point at which control cells reached ˜90% confluence (vertical solid black line). Relative cell confluence (control is taken as 100%) is plotted against concentration. Dashed lines represent the fitting curves used to determine the IC50 values as indicated. Data shown are the means & SD.
The following cell lines were obtained from the American Type Culture Collection (Manassas, VA), where they were regularly authenticated: HCT116 (ATCC Cat #CRL-247, human colon cancer cells) and MiaPaCa-2 (ATCC Cat #CRL-1420, human pancreatic cancer cells). All cells were cultured in a humidified incubator at 37° C. and 5% carbon dioxide. HCT116 cells were maintained in RPMI 1640 medium (Thermo Fisher Scientific, Cat #11875), supplemented with 10% fetal bovine serum. MiaPaCa-2 cells were maintained in Dulbecco's Modified Eagle Medium (Thermo Fisher Scientific, Waltham, MA; Cat #11965) supplemented with 10% fetal bovine serum. All cells were stored in liquid nitrogen and used within 20 passages after thawing.
The IncuCyte Live-Cell Analysis system (Essen Bioscience Inc., Ann Arbor, MI) was used to monitor cell proliferation (Cheng et al., 2013, 2016; Boyle et al., 2018). As shown in previous publications (Cheng et al., 2013, 2016), this imaging system is probe-free and noninvasive, and enables continuous monitoring of cell confluence over several days. The increase in the percentage of cell confluence was used as a surrogate marker of cell proliferation. In a 96-well plate, cells were plated at 1,000 cells per well in triplicates and left to adhere overnight. Cells were then treated with HU and Mito-HUs, and the cell confluency was recorded over several days in the IncuCyte Live-Cell Analysis system.

For a further assay, the target named is mitochondrial complex I (Homo sapiens, UniProt O75251+O75306+P03886). In words: Complex I-dependent oxygen consumption (OCR), Seahorse XF-96, HCT116 cells. The note with it: for effect on complex I-induced oxygen consumption: HCT116, 24 hr; for IC50: mean ± SD, HCT116, 24 hr treatment, read-out: IC50 Complex I (FIG. 2). On the procedure: (§1) FIG. 2. Effects of HU and Mito-HUs on the oxygen consumption by mitochondrial complexes I and III (A) Dose-dependent effects of HU, Mito10-HU, Mito12-HU, Mito14-HU, Mito16-HU, and Mito20-HU on complex I- and complex III-dependent oxygen consumption were measured in HCT116 cells. HCT116 cells were treated with HU or Mito-HUs as indicated for 24 hr. Mitochondrial complex I activity (left) and complex III activity (right) were monitored by a Seahorse XF-96 analyzer. Either rotenone (complex I inhibitor) or antimycin A (complex III inhibitor) was acutely added and OCR assayed immediately. (B) The mitochondrial complex I (left) and III (right) dependent oxygen consumption (calculated as rotenone or antimycin A inhibitable OCR) are plotted against concentration of HU and Mito-HUs. Dashed lines represent the fitting curves used for determination of the IC50 values. Data shown are the means G SD.
(§2) Mitochondrial oxygen consumption was measured using the Seahorse XF-96 Extracellular Flux Analyzer (Agilent, North Billerica, MA) (Cheng et al., 2013, 2016; Boyle et al., 2018; Weinberg and Chandel, 2015). After cells were treated with HU or Mito-HUs for 24 hr, the OCR-based assessment of mitochondrial complex activities was carried out on acutely permeabilized cells in the presence of different mitochondrial substrates, i.e., pyruvate/malate for complex I and duroquinol for complex III (Cheng et al., 2016, 2019; Salabei et al., 2014; Wheaton et al., 2014). Rotenone, malonate, and antimycin A (Sigma-Aldrich, St. Louis, MO) were used as specific inhibitors of mitochondrial complexes I, II, and III, respectively. Briefly, cells that were intact after treatments were immediately permeabilized using the Seahorse XF Plasma Membrane Permeabilizer (Agilent). The mitochondrial complex I-induced OCR was assayed in mannitol and sucrose buffer (Salabei et al., 2014) containing 10 mM pyruvate and 1.5 mM malate (substrates for complex I) and 10 mM malonate (which inhibits complex II activities). The mitochondrial complex III-driven OCR was assayed in a mannitol and sucrose buffer containing 0.5 mM duroquinol (substrate for complex III) as well as […] and 10 mM malonate (which inhibit both complex I and II activities). The IC50 values were determined as previously reported (Cheng et al., 2019).

Assay [2] has as its target T1, mitochondrial complex III (Homo sapiens, UniProt P00156+P47985).
T1 construct: other: mean ± SD; HCT116, 24 hr treatment; Complex III activity (OCR, % of control); other: 0.1 μM, 24 hr, HCT116; n = 4; other: 0.5 μM, 24 hr, HCT116; other: 0.75 μM, 24 hr, HCT116; other: 1 μM, 24 hr, HCT116; Compl
In words: Complex III-dependent oxygen consumption (OCR), Seahorse XF-96, HCT116 cells. As to conditions: for effect on complex III-induced oxygen consumption: HCT116, 24 hr; for IC50: mean ± SD, HCT116, 24 hr treatment, read-out: IC50 Complex III (FIG. 2). As for the experimental part: as §1, §2

[3] abbreviates: HCT-116, HCT116, read-out: IC50 proliferation of HCT116 cells.
Setting [4] is: HCT-116, mean ± SD, HCT116, read-out: IC50 Cell Proliferation (FIG. 1).

Read-outs that look alike come from different tables or passages of the source.

For the compound `NC(=O)NOCCCCCCCCCC[P+](c1ccccc1)(c1ccccc1)c1ccccc1.O=C([O-])C(F)(F)F` [Mito10-HU, 10-[(carbamoylamino)oxy]-decyltriphenylphosphonium trifluoroacetate], the “Cell Confluence (%)” value came out at 82.13% in assay [1] (0.1 μM); 84.69% in assay [1] (0.3 μM); 83.91% in assay [1] (1 μM); 64.31% in assay [1] (3 μM); 67.01% in assay [1] (5 μM); 26.84% in assay [1] (10 μM). Also, the “Cell Confluence (%)” value is 13.75% in assay [1] (12.5 μM); 8.68% in assay [1] (15 μM); 3.45% in assay [1] (20 μM); 1.74% in assay [1] (30 μM); 1.53% in assay [1] (100 μM). In assay [1] (HCT116), the “inhibition of proliferation of HCT116 cells” value (shortened to “inhibition … of HCT116 cells”) is “dose-dependently inhibited proliferation”. Also, the IC50 was found to be 8000 nM in assay [1] (setting [3]), 8500 ± 410 nM in assay [1] (setting [4]), 8900 ± 1220 nM on mitochondrial complex I and 21000 ± 720 nM in assay [2]. In assay [1] (Mito10-HU (5 μM) together with AZD-3965 (100 μM), HCT-116), the “inhibition of cell proliferation, combination with AZD-3965” value was “synergistically inhibited”. Moreover, the “inhibition of cell proliferation, combination with syrosingopine (combination index)” value in assay [1] (Mito10-HU (5 μM) together with syrosingopine (7.5 μM), HCT116) is “synergistic”. Further, the “effect on complex I-induced oxygen consumption” value on mitochondrial complex I is reported as “potently inhibited”. The “effect on complex III-induced oxygen consumption” value in assay [2] is listed as “potently inhibited”.

On to `NC(=O)NOCCCCCCCCCCCCCCCC[P+](c1ccccc1)(c1ccccc1)c1ccccc1.O=C([O-])C(F)(F)F` [Mito16-HU, 16-[(carbamoylamino)oxy]-hexadecyltriphenylphosphonium trifluoroacetate], for which, in assay [1] (HCT116), the “inhibition … of HCT116 cells” value is “dose-dependently inhibited proliferation”. The IC50 in assay [1] (setting [3]) is 510 nM; in assay [1] (setting [4]) it was 500 ± 10 nM; on mitochondrial complex I, 800 ± 50 nM; in assay [2], 2600 ± 390 nM. On mitochondrial complex I, the “effect on complex I-induced oxygen consumption” value is given as “potently inhibited”. Also, the “effect on complex III-induced oxygen consumption” value in assay [2] was “potently inhibited”.

With `NC(=O)NOCCCCCCCCCCCCCCCCCCCC[P+](c1ccccc1)(c1ccccc1)c1ccccc1.O=C([O-])C(F)(F)F` [Mito20-HU, 20-[(carbamoylamino)oxy]-eicosanyltriphenylphosphonium trifluoroacetate], in assay [1] (HCT116), the “inhibition … of HCT116 cells” value is “dose-dependently inhibited proliferation”. Moreover, the IC50 in assay [1] (setting [3]) came out at 230 nM; in assay [1] (setting [4]) it was 230 ± 20 nM; at mitochondrial complex I, 800 ± 60 nM; in assay [2], 4200 ± 400 nM.

As to `NC(=O)NOCCCCCCCCCCCCCC[P+](c1ccccc1)(c1ccccc1)c1ccccc1.O=C([O-])C(F)(F)F` [Mito14-HU, 14-[(carbamoylamino)oxy]-tetradecyltriphenylphosphonium trifluoroacetate], the “inhibition … of HCT116 cells” value in assay [1] (HCT116) was “dose-dependently inhibited proliferation”. The IC50 in assay [1] (setting [3]) is 740 nM; in assay [1] (setting [4]), 900 ± 40 nM; on mitochondrial complex I it was 1000 ± 120 nM; in assay [2], 1700 ± 690 nM. Further, the “effect on complex I-induced oxygen consumption” value on mitochondrial complex I is recorded as “potently inhibited”. In assay [2], the “effect on complex III-induced oxygen consumption” value was “potently inhibited”.
